Source: PMC6321301, “Phenolic Composition, Antioxidant Properties, and Inhibition toward Digestive Enzymes with Molecular Docking Analysis of Different Fractions from Prinsepia utilis Royle Fruits” (Molecules, 2018)
Read-outs that look alike come from different tables or passages of the source.

Experiments:
[1] = biological target: T1, porcine pancreatic lipase (Sus scrofa, UniProt P00591); assay: Pancreatic lipase inhibition; format: biochemical; conditions: mean ± SD, n = 3
T1 construct: purchased Sigma (Sigma-Aldrich, Shanghai, China); host or cells: porcine pancreas (natural source)
T1 sequence (P00591 1-450): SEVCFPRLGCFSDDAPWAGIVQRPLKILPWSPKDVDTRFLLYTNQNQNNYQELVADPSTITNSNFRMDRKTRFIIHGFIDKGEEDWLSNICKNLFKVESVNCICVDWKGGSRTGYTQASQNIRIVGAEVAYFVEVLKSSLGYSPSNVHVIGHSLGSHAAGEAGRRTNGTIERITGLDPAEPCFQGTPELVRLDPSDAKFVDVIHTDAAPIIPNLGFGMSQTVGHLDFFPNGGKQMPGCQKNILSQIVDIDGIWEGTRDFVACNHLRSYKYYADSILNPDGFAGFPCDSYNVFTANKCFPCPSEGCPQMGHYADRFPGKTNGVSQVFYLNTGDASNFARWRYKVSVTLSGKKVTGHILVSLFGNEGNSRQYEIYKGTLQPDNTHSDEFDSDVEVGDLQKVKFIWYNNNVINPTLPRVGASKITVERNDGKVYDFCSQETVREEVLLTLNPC
Experimental: (§1) Methanol, acetonitrile, formic acid, and Folin–Ciocalteu reagent were purchased from Merck (Darmstadt, Germany). […] All of the other reagents that were used were of analytical grade.
The inhibitory effects of different fractions from P. utilis fruits, rutin, isorhamnetin-3-O-glucoside, and cyanidin-3-O-glucoside against pancreatic lipase activity were measured according to the method reported earlier. The absorbance (OD) was measured at 400 nm by using a SpectraMax M5 microplate reader. Each test was measured three times.

[2] = biological target: T2, α-glucosidase from Saccharomyces cerevisiae (Saccharomyces cerevisiae, UniProt P53341); assay: α-Glucosidase inhibition; format: biochemical
T2 construct: purchased Sigma (Sigma-Aldrich, Shanghai, China); host or cells: Saccharomyces cerevisiae (natural source, as named)
Experimental: as §1
The α-glucosidase inhibition activities of different fractions from P. utilis fruits, rutin, and isorhamnetin-3-O-glucoside were evaluated as previously described with some modifications. The absorbance (OD) of the each reaction mixture at 405 nm was recorded by using a SpectraMax M5 microplate reader (Molecular Device, Sunnyvale, CA, USA).

[3] = cited from earlier work
[4] = cited from earlier work; remark: listed apart in the source
[5] = DPPH radical scavenging assay; conditions: mean ± SD, n = 3
Experimental: The current result was consistent with many previous studies. Huang et al. reported that the phenolic compounds in P. utilis seeds were responsible for their DPPH radical scavenging activities, regardless of different pretreatments. Zhang et al. also considered phenolics to be the main bioactive substances in Rhus chinensis Mill. fruits to scavenge DPPH radicals.
The antioxidant activities of all of the fractions from P. utilis fruits were determined by DPPH assay according to the methods described earlier. The absorbance of the reaction mixture was recorded by a SpectraMax M5 microplate reader (Molecular Device, Sunnyvale, CA, USA) at 517 nm. The DPPH radical scavenging activity (%) was calculated as [(ODcontrol − ODsample)/ODcontrol] × 100. Each test was measured in triplicate.

H2O2-induced HepG2 cells = assay: Inhibition of intracellular ROS in H2O2-induced HepG2 cells (DCFH-DA, flow cytometry); format: cell-based; conditions: 8.0 μg/mL, positive control; p < 0.05
Experimental: HepG2 cells were supplied by Kunming cell bank, Chinese Academy of Sciences (Kunming, China), which were cultured in normal Dulbecco’s Modified Eagle Medium (DMEM) medium containing 10% fetal bovine serum (FBS), 1% antibiotic mixture of streptomycin (100 mg/mL) and penicillin (100 U/mL) at 37 °C with a humidified 5% CO2 atmosphere. […] Briefly, cells were seeded on six-well plates at 2.0 × 10^5 cells per well, and incubated for 24 h. […] Then, cells were harvested and washed twice with phosphate buffer solution (PBS). The cells of all of the groups were incubated with 10 μM of DCFH-DA for 20 min, and washed with serum-free medium to remove excess DCFH-DA by centrifuging at 156× g for five minutes. Subsequently, the intracellular ROS of each group was measured by flow cytometry with guava® easyCyte 6-2L (Millipore, Billerica, MA, USA) within 45 min. All of the experiments were measured in triplicate.

[6] = ABTS radical scavenging assay; conditions: mean ± SD, n = 3
Description: Phenolic compounds in P. utilis fruits may be also in charge of the ABTS scavenging capacities, which were confirmed by a high Pearson’s correlation coefficient between the phenolic contents and ABTS radical scavenging ratio (r = 0.889, p < 0.01). Some discrepancies between the IC50 values of DPPH and ABTS assays of the same fraction from P. utilis fruits were observed, which may be due to the different radical structure. Many previous studies also found a similar phenomenon when the DPPH results were compared with the ABTS findings.
The antioxidant activities of all of the fractions from P. utilis fruits were measured by ABTS assay as described earlier. The absorbance of the reaction mixture was determined with a SpectraMax M5 microplate reader at 745 nm. The ABTS radical scavenging activity (%) of each sample was calculated as [(ODcontrol − ODsample)/ODcontrol] × 100. Each test was measured three times.

α-glucosidase = conditions: cited from earlier work

T2 sequence (P53341 whole entry): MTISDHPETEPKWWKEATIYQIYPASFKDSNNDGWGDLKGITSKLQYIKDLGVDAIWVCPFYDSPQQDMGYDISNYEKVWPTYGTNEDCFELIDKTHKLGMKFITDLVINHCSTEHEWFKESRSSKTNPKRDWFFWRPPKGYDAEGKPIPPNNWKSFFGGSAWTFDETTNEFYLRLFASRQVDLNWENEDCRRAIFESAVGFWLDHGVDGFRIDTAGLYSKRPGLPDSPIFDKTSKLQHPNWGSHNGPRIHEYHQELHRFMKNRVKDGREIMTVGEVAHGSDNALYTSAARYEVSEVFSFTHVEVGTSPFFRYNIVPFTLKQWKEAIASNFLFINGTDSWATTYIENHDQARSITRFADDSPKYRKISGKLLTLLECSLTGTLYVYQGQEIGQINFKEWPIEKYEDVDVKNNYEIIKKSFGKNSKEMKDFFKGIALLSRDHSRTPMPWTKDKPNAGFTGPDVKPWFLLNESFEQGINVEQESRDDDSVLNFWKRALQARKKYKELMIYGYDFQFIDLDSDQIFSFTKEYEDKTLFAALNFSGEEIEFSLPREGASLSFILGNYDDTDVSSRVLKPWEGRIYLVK

Compound: OC[C@H]1O[C@@H](Oc2cc3c(O)cc(O)cc3[o+]c2-c2ccc(O)c(O)c2)[C@H](O)[C@@H](O)[C@@H]1O [Cyanidin-3-O-glucoside]
- pancreatic lipase inhibition IC50 [1]: 249.20 ± 3.87 µg/mL

Compound: COc1cc(-c2oc3cc(O)cc(O)c3c(=O)c2O[C@@H]2O[C@H](CO[C@@H]3O[C@@H](C)[C@H](O)[C@@H](O)[C@H]3O)[C@@H](O)[C@H](O)[C@H]2O)ccc1O [Isorhamnetin-3-O-rutinoside]
- pancreatic lipase inhibition IC50 [1]: 237.87 ± 8.20 µg/mL
- α-glucosidase inhibition IC50 ([2]; mean ± SD, n = 3): 90.19 ± 3.27 µg/mL

Compound: C[C@@H]1O[C@@H](OC[C@H]2O[C@@H](Oc3c(-c4ccc(O)c(O)c4)oc4cc(O)cc(O)c4c3=O)[C@H](O)[C@@H](O)[C@@H]2O)[C@H](O)[C@H](O)[C@H]1O [Rutin]
- IC50 [1]: 289 µM
- DPPH radical scavenging IC50 [3]: 29.63 µg/mL
- ABTS radical scavenging IC50 [4]: 5.34 µg/mL
- IC50 [2]: 208 µM

Compound: O=C1O[C@H]([C@@H](O)CO)C(O)=C1O [Vc, ascorbic acid]
- DPPH radical scavenging IC50 [5]: 2.32 ± 0.11 µg/mL
- intracellular ROS generation (H2O2-induced HepG2 cells): significantly inhibited intracellular ROS generation
- ABTS radical scavenging IC50 [6]: 1.92 ± 0.21 µg/mL

Compound: O=C(O[C@@H]1Cc2c(O)cc(O)cc2O[C@H]1c1cc(O)c(O)c(O)c1)c1cc(O)c(O)c(O)c1 [gallocatechin gallate]
- manner of α-glucosidase inhibition (α-glucosidase): noncompetitive
- α-glucosidase inhibition IC50 (α-glucosidase): 30.02 µg/mL

Compound: O=C(CCc1ccc(O)cc1)c1c(O)cc(O)cc1O [phloretin]
- α-glucosidase inhibition IC50 (α-glucosidase): 31.26 µg/mL
- manner of α-glucosidase inhibition (α-glucosidase; reversible): mixed-type
